ChEMBL document CHEMBL3507680, “University of Dundee, Gates Library screen for HepG2 cell viability”

Assay: Human HepG2 cell viability assay in 384 well format
Type: toxicity, cell-based
Design: dose 125 nL, time 70.5 hour; cytotoxicity at 70.5 h: concentration not given beside the values
Conditions: HepG2 cells, read-out: Inhibition

| Structure (SMILES) | cytotoxicity at 70.5 h [%] |
| --- | --- |
| CCOC(=O)NCCC(=O)NCc1ccc(Oc2cccc(F)c2)nc1 | -3.11 |
| CC(NC(=O)CCc1nc(-c2nnc[nH]2)no1)c1ccc(F)cc1F (centres undefined) | 4.47 |
| CN(C)c1cc(C(=O)Nc2ccccc2C(=O)NC(C)(C)C)ccn1 | -2.3 |
| CCNC(=O)Cc1ccc(NC(=O)NC(CC)CC)cc1 | 1.05 |
| Cn1c(C2CCCN2C(=O)CN2CSCC2=O)nc2ccccc21 (centres undefined) | -5.23 |
| CC(C)COC(=O)N1CCCN(C(=O)c2ccnc(N(C)C)c2)CC1 | 1.08 |
| Cc1nc2cc(=O)[nH]n2c(C)c1CC(=O)Nc1cn[nH]c1 | -2.66 |
| CC(NC1(CNC(=O)CC2CCCC2)CCOCC1)c1ccccc1 (centres undefined) | -6.24 |
| Cc1nc2cc(=O)[nH]n2c(C)c1CNC(=O)c1cnn(C(C)(C)C)c1 | 4.01 |
| CCOC(=O)c1nnc2ccccc2c1N1CCOC(C)(C)C1 | 16.1 |
| O=C(NCc1ccc(CN2CCCC2)cc1)NCc1ccon1 | -3.38 |
| CSc1ccc(C(CC(=O)O)NC(=O)c2cc(C)on2)cc1 (centres undefined) | 0.955 |
| CC(NC1(CNC(=O)OC(C)(C)C)CCOCC1)c1ccccc1 (centres undefined) | -5.89 |
| Cc1cn2c(n1)CCC(NS(=O)(=O)c1cc(C)sc1C)C2 (centres undefined) | -3.85 |
| CC(=O)N1CCN(CCNS(=O)(=O)c2cccc(F)c2)CC1 | -0.607 |
| O=C(C1CCCCC1)N1CCC2(CC1)OCCO2 | -5.09 |
| Cc1ncsc1C(=O)Nc1ccccn1 | -6.03 |
| CC(=O)N1CCN(CCNS(=O)(=O)c2cc(F)cc(F)c2)CC1 | -0.303 |
| CC(C)COCCC(=O)NCCC(=O)N1CCN(c2ccccn2)CC1 | -2.77 |
| Cc1nc(C2(NCC(=O)NC(=O)Nc3ccccc3)CCCCC2)no1 | -0.595 |
| Cc1nc(C2(NCC(=O)NCc3cccs3)CCCCC2)no1 | -2.14 |
| Cc1ccc(C(=O)N(C)Cc2ccc(Br)s2)c(=O)[nH]1 | 2.28 |
| CC(C)Cc1cc(C(=O)NC(C)C)[nH]n1 | -4.46 |
| NC(=O)C(CNC(=O)CCc1ccccc1)Cc1ccc(F)cc1 (centres undefined) | -2.33 |

| Structure (SMILES) | cytotoxicity at 70.5 h [%] |
| --- | --- |
| CC(=O)N1CCN(CCNS(=O)(=O)c2c(F)cccc2F)CC1 | -5.97 |
| CCc1ccc(C(=O)N2CCC(c3nncn3CC)CC2)o1 | -6.22 |
| O=C(NCCCNC(=O)c1ccccc1)Nc1ccc(F)cc1F | -4.28 |
| CCn1cnnc1C1CCN(C(=O)c2ccc3c(c2)nnn3C)CC1 | 22.3 |
| CCn1cnnc1C1CCN(C(=O)c2cccc(N(C)C)c2)CC1 | 1.66 |
| CC(C)NC(=O)NCC(Cc1ccc(F)cc1)C(N)=O (centres undefined) | 21.5 |
| CC(C)S(=O)(=O)CC(=O)NCC(Cc1ccc(F)cc1)C(N)=O (centres undefined) | 1.75 |
| Cc1cnc(CN(C)C2CCCN(c3cccnn3)C2)cn1 (centres undefined) | -0.507 |
| CC(c1nc(C(C)(C)C)no1)N1CCN(C(=O)CN2CCOCC2)CC1 (centres undefined) | -6.71 |
| Cc1ncc(CNC2CCc3nc(C(C)C)nn3C2)s1 (centres undefined) | 1.67 |
| Cc1cc(CNC2CCc3nc(C(C)C)nn3C2)on1 (centres undefined) | -5.91 |
| O=C(CCS(=O)(=O)C1CCCC1)N1CCCC1c1ccsc1 (centres undefined) | -4.99 |
| Cc1ccc(NC(=O)CNc2cccc(C(N)=O)c2C)c(C)c1 | 33.2 |
| COc1ccc(C2CCCN2Cc2nnnn2C2CC2)cc1OC (centres undefined) | -0.63 |
| CN(Cc1ccncc1)C(=O)NC1CCS(=O)(=O)C1 (centres undefined) | -3.72 |
| Cc1csc(CCNC(=O)Nc2cc(C(F)(F)F)c[nH]c2=O)n1 | -1.34 |
| COCCOCCNC(=O)c1cccc(Cn2nc(C)cc2C)c1 | 34.2 |
| Cc1nc(CNC(=O)Nc2cc(C(F)(F)F)c[nH]c2=O)cs1 | 1.62 |
| CC(C)CN1CCC(NC(=O)c2ccc(Cl)cc2Cl)CC1 | -1.21 |
| CCOCCNC(=O)c1cccc(Cn2nc(C)cc2C)c1 | -7.21 |
| N#CCCCOc1cccnc1NC(=O)CCC1CCCC1 | -0.625 |
| CCc1nnc2n1CCN(C(=O)c1ccc(C)c(S(N)(=O)=O)c1)C2 | -1.49 |
| O=C(CN1CCCC1Cn1cncn1)Nc1nccs1 (centres undefined) | -7 |
| COc1ccc(CNCCc2cc(F)cc3c2OCOC3)cc1OC | 2.03 |

| Structure (SMILES) | cytotoxicity at 70.5 h [%] |
| --- | --- |
| CCN(CC)C(=O)CNC(=O)c1ccc(-c2ccsc2)nc1C | 59.9 |
| Cc1cnn(CC2CN(CC(=O)Nc3cccnc3)CCO2)c1 (centres undefined) | -4.29 |
| Cc1nc(CN2CCC(N(C)Cc3noc(C(C)C)n3)C2)oc1C (centres undefined) | 10.7 |
| CCc1cnc(CN(C)C2CCN(CCNS(=O)(=O)CC)C2)o1 (centres undefined) | 2.11 |
| CCc1cnc(CN(C)C2CCN(CC3CCOCC3)C2)o1 (centres undefined) | 4.66 |
| CCCc1n[nH]c(C2CN(C(=O)CCCn3ccnc3)CCO2)n1 (centres undefined) | -0.218 |
| Fc1ccc(CNCCn2cccn2)c(F)c1 | 21.2 |
| Cc1ccc(C(=O)N2CCCC2c2nnc3n2CCCCC3)s1 (centres undefined) | 8.9 |
| Cc1cc(C(=O)N2CCCC2c2nnc3n2CCCCC3)on1 (centres undefined) | -2.64 |
| CCCOc1cc(C)ccc1NC(=O)NCCNC(=O)C(C)C | 25.7 |
| Cc1nn(C)c(C)c1CCC(=O)N(C)Cc1ccc(C#N)cc1 | 1.66 |
| O=C(c1ccc(Cl)o1)N1CCCC1c1nnc2n1CCCCC2 (centres undefined) | 1.9 |
| Cc1ncncc1C(=O)NCCN1CCC(C)CC1 | 5.52 |
| Cc1nn(C)c(N2CCOCC2)c1CNC(C(N)=O)c1ccccc1 (centres undefined) | 4.26 |
| CS(=O)(=O)N1CCC(Oc2ccc(C#N)cc2)CC1 | 7.19 |
| CN(C)C(=O)c1cnc(-c2ccc3c(c2)OCO3)s1 | 6.77 |
| CC(C)N(CC(N)=O)C(=O)c1cnc(-c2ccc3c(c2)OCO3)s1 | 5.92 |
| CC(C)c1nnc2n1CC(CNCc1nc3ccccc3s1)CC2 (centres undefined) | 21.9 |
| COc1ccc(CN(C)C(=O)Cc2c(C)nn(C)c2C)cc1F | 2.24 |
| COc1ccc(C2CCCCCN2S(C)(=O)=O)cc1 (centres undefined) | 1.84 |
| CCS(=O)(=O)CCN1CCC(N(C)Cc2ncc(C)o2)C1 (centres undefined) | 0.306 |
| CCc1n[nH]c(C2CN(C(=O)CCCn3cccn3)CCO2)n1 (centres undefined) | 2.59 |
| Cc1ccc(NCCCNC(=O)NCC2CCS(=O)(=O)C2)nc1 (centres undefined) | -17.4 |
| Cc1ccc(-c2nnc(CN3CC(n4cc(C)cn4)C3)o2)cc1 | -13.9 |

| Structure (SMILES) | cytotoxicity at 70.5 h [%] |
| --- | --- |
| NC(=O)c1cccc(CNC/C=C/c2ccccc2)c1 | 12.6 |
| COC(=O)NCC(=O)NC(c1ccc(Cl)cc1)C(F)(F)F (centres undefined) | -8.75 |
| Cc1cc(-c2noc(C3CCS(=O)(=O)C3)n2)ccc1F (centres undefined) | -11 |
| NC(=O)C1CN(C(=O)NCC2(c3ccc(F)cc3)CCC2)CCO1 (centres undefined) | 1.35 |
| O=C(NCC1(c2ccc(F)cc2)CC1)N1CCC2(CCOC2)C1 (centres undefined) | 13.9 |
| CN(CCNS(C)(=O)=O)CC(c1cccs1)N1CCOCC1 (centres undefined) | -8.66 |
| CC(C)N(CCNCc1ccc(C#N)cc1)C1CC1 | 17.7 |
| O=C(NCC1(c2ccc(F)cc2)CCC1)N1CCC2(C1)OCCO2 | -8.6 |
| CCc1sc(-c2nnc(CNC(C)Cn3cc(C)cn3)o2)cc1C (centres undefined) | 5.1 |
| CCc1sc(-c2nnc(CNC(C)Cn3cccn3)o2)cc1C (centres undefined) | -11.3 |
| Cc1cnn(C2CN(Cc3nnc(Cc4ccccc4)o3)C2)c1 | -13.1 |
| CN(C)C(=O)CNC(CC(F)(F)F)c1ccc(F)cc1 (centres undefined) | 7.18 |
| COCC1CCCN(C(=O)c2ccccc2NCc2cccnc2)C1 (centres undefined) | 3.32 |
| OCCCN(CCc1cccc(F)c1)C1CC1 | -4.09 |
| CN(C)c1nc(N)nc(CN2CCCC2c2cccs2)n1 (centres undefined) | 0.514 |
| NC(=O)NC(=O)CCSCc1coc(-c2ccc(F)cc2)n1 | -3.5 |
| Cn1c2ncccc2c(=O)n1CC(=O)Nc1ccc(F)c(F)c1 | -3.2 |
| Cc1cccc(-n2cnc(Cl)c2C(=O)O)c1 | -16.5 |
| COCCOc1ccc(CNc2nc3ccccc3nc2N)cn1 | -3.46 |
| O=C(O)c1ccnc(SCC(F)(F)F)c1 | -10.8 |
| Cn1c2ncccc2c(=O)n1CC(=O)NCCc1c(F)cccc1F | -7.19 |
| O=C(NC1CCCN(c2ccccc2Cl)C1)c1ccc(=O)[nH]n1 (centres undefined) | -12.6 |
| Cc1nnc(SC2CCN(c3sccc3C#N)C2=O)[nH]1 (centres undefined) | -9.17 |
| Cc1cc(CCC(=O)NCc2ncc[nH]2)ccc1Br | -0.138 |

| Structure (SMILES) | cytotoxicity at 70.5 h [%] |
| --- | --- |
| Cc1nnc(SC2CCN(c3sccc3C#N)C2=O)s1 (centres undefined) | 24.5 |
| Cc1cc(CCC(=O)NCc2nccn2C)ccc1Br | 1.59 |
| CN1CCN(C(=O)c2cc[nH]c(=O)c2)Cc2ccccc21 | 1.93 |
| N#Cc1ccsc1N1CCC(Sc2ccncc2)C1=O (centres undefined) | -7.07 |
| Cc1cc(=O)[nH]cc1C(=O)N1Cc2ccccc2N(C)CC1C (centres undefined) | 26 |
| CC1(C)CN=C(N2CCN(CC3CCOC3)CC2)S1 (centres undefined) | -12.3 |
| Cc1nn(C)c(C)c1C(=O)N1CCN(c2ccncc2Cl)CC1 | -6.89 |
| CC(C)(CO)CCCNC(=O)NC1(C)Cc2ccccc2C1 | -0.326 |
| COC1CCN(C(=O)c2ccccc2NCc2cccnc2)CC1 | -2.63 |
| COc1ccc(CC(=O)N(C)c2cccnc2N(C)C)c(Cl)c1 | -1.15 |
| CC(C)(C)n1cc(CNc2ccc(CNS(C)(=O)=O)cc2)cn1 | -8.49 |
| CN1CCCN(C(=O)c2cccn2-c2ccc3c(c2)OCCO3)CC1 | -5.24 |
| O=C(c1cccn1-c1ccc2c(c1)OCCO2)N1CCCC1 | -11.9 |
| COC(=O)C1CCCN1C(=O)c1ccc(-n2nc(C)cc2C)cc1 (centres undefined) | -4.44 |
| COc1ccc(N(Cc2ccco2)C(=O)C2CCOC2)cc1F (centres undefined) | -6.7 |
| CCOC(=O)C1CSCCN1C(=O)c1ccc(-n2nc(C)cc2C)cc1 (centres undefined) | 3.47 |
| COc1c(CNC(C)C(=O)NC2CCCC2)c(C)nn1C (centres undefined) | -6.91 |
| O=C(Nc1nnn[nH]1)c1ccc(I)c(F)c1 | 4.13 |
| CC(=O)N1CCCN(C(=O)NC(C)c2csc3ccccc23)CC1 (centres undefined) | -6.35 |
| Cc1cccc(NC(=O)N2CCN(Cc3nnc(C(C)C)o3)CC2)c1 | -7.45 |
| CCCN1CCC(Nc2nc(C)ns2)CC1 | -8.37 |
| C=C(C)CN1CCC(Nc2nc(C)ns2)CC1 | -0.501 |
| CCC(C)(N)c1nc(=O)c(C(C)C)c(C)[nH]1 (centres undefined) | -5.63 |
